One test has as its target T1, human Nav1.7 (Homo sapiens, UniProt Q15858).
T1 construct: expressed in transfected cells
Description: Automated patch-clamp (Nanion SyncroPatch 384PE) on CHO cells expressing human Nav1.7. The settings on record: for time constant of inhibition: mono-exponential fit. Format: cell-based. From the text: We used a CHO mammalian cell line expressing the human Nav1.7 instead of Xenopus oocytes for the pharmacological evaluation. […] 100-ms pulses from −100 mV to −10 mV were applied at a frequency of 0.2 Hz and various concentrations of PhlTx1 were applied to the cells. […] Using a manual patch clamp, which is better suited to investigate current recovery from block than an automated patch clamp that requires several washing steps, we investigated the reversibility properties of a PhlTx1 block.
CHO cells stably expressing the human Nav1.7 cells were cultured in Dulbecco’s Modified Eagle’s Medium (DMEM) supplemented with 10% fetal calf serum, 1 mM pyruvic acid, 4 mM glutamine, 10 IU/mL penicillin and 10 μg/mL streptomycin (Gibco, Grand Island, NY, USA), and incubated at 37 °C in a 5% CO2 atmosphere. For automated patch-clamp recordings, cells were detached with trypsin and floating single cells were diluted (~300,000 cells/mL) in medium contained (in mM): 4 KCl, 140 NaCl, 5 Glucose, 10 HEPES (pH 7.4, osmolarity 290 mOsm).
Chips with single-hole and high-resistance (~6–7 MΩ) were used for CHO cell recordings. Voltage pulses and whole-cell recordings were achieved using the PatchControl384 v1.5.2 software (Nanion, Munich, Germany) and the Biomek v1.0 interface (Beckman Coulter). Prior recordings, dissociated cells were shaken at 60 RPM in a cell hotel reservoir at 10 °C. After cell catching, sealing, whole-cell formation, liquid application, recording, and data acquisition were all performed sequentially and automatically. […] Whole-cell experiments were done at −100 mV holding potential and at room temperature (18–22 °C), while currents triggered at −10 mV test potential were sampled at 20 kHz. Stimulation frequency was set at 0.2 Hz. Toxins were prepared at various concentrations in the extracellular solution, itself supplemented with 0.3% BSA. […] Compound solutions were diluted 3 times in the patch-clamp recording well by adding 30 μL to 60 μL external solution to reach the final reported concentration and the test volume of 90 μL. Percentages of current inhibitions were measured at the end of a 12- to 15-min application time (12-min for fast blocking toxins; 15-min for slow blocking ones). A single concentration of peptide was tested on each cell for building the full-inhibition curves.

Another test relates to human Nav1.7 channel. The settings on record: ref [47]; cited from earlier work.
The next test has as its target T2, hNav1.6 (Homo sapiens, UniProt Q9UQD0).
T2 construct: expressed in transfected cells; host or cells: HEK293 cells
Description: Automated patch-clamp dose-response on hNav1.6 expressed in HEK293 cells. Format: cell-based. The settings on record: 15 to 23 cells per concentration, read-out: calculated IC50. From the text:
Following our initial screen for the selectivity of synthetic PhlTx1 and the discovery that Nav1.7 was the main target, we decided to further evaluate the activity of PhlTx1. We used a CHO mammalian cell line expressing the human Nav1.7 instead of Xenopus oocytes for the pharmacological evaluation. To this end, we used an automated patch-clamp system, the Nanion syncropatch 384PE, and a standardized robotic method from Beckmann to apply PhlTx1 in the recording chambers and collect the kinetic information of Nav1.7 current from a high number of Nav1.7-expressing cells. The syncropatch 384PE has the potential to record from 384 cells at a time. 100-ms pulses from −100 mV to −10 mV were applied at a frequency of 0.2 Hz and various concentrations of PhlTx1 were applied to the cells. An example of a Nav1.7 current recording is illustrated in Figure 6A along with the effect of 100 nM PhlTx1. […]
PhlTx1 and other Nav1.7-acting toxins were investigated on CHO cells expressing the human Nav1.7 channel using the Automated patch-clamp system from Nanion (München, Germany), the SyncroPatch 384PE. […] Percentages of current inhibitions were measured at the end of a 12- to 15-min application time (12-min for fast blocking toxins; 15-min for slow blocking ones). […]

Bridge positions count the residues as written; N and C are the ends. Peptide text beside a SMILES is read from it.

We go through one molecule from article PMC6628435, “Chemical Synthesis, Proper Folding, Nav Channel Selectivity Profile and Analgesic Properties of the Spider Peptide Phlotoxin 1” (Toxins, 2019).

T1 sequence (Q15858 whole entry): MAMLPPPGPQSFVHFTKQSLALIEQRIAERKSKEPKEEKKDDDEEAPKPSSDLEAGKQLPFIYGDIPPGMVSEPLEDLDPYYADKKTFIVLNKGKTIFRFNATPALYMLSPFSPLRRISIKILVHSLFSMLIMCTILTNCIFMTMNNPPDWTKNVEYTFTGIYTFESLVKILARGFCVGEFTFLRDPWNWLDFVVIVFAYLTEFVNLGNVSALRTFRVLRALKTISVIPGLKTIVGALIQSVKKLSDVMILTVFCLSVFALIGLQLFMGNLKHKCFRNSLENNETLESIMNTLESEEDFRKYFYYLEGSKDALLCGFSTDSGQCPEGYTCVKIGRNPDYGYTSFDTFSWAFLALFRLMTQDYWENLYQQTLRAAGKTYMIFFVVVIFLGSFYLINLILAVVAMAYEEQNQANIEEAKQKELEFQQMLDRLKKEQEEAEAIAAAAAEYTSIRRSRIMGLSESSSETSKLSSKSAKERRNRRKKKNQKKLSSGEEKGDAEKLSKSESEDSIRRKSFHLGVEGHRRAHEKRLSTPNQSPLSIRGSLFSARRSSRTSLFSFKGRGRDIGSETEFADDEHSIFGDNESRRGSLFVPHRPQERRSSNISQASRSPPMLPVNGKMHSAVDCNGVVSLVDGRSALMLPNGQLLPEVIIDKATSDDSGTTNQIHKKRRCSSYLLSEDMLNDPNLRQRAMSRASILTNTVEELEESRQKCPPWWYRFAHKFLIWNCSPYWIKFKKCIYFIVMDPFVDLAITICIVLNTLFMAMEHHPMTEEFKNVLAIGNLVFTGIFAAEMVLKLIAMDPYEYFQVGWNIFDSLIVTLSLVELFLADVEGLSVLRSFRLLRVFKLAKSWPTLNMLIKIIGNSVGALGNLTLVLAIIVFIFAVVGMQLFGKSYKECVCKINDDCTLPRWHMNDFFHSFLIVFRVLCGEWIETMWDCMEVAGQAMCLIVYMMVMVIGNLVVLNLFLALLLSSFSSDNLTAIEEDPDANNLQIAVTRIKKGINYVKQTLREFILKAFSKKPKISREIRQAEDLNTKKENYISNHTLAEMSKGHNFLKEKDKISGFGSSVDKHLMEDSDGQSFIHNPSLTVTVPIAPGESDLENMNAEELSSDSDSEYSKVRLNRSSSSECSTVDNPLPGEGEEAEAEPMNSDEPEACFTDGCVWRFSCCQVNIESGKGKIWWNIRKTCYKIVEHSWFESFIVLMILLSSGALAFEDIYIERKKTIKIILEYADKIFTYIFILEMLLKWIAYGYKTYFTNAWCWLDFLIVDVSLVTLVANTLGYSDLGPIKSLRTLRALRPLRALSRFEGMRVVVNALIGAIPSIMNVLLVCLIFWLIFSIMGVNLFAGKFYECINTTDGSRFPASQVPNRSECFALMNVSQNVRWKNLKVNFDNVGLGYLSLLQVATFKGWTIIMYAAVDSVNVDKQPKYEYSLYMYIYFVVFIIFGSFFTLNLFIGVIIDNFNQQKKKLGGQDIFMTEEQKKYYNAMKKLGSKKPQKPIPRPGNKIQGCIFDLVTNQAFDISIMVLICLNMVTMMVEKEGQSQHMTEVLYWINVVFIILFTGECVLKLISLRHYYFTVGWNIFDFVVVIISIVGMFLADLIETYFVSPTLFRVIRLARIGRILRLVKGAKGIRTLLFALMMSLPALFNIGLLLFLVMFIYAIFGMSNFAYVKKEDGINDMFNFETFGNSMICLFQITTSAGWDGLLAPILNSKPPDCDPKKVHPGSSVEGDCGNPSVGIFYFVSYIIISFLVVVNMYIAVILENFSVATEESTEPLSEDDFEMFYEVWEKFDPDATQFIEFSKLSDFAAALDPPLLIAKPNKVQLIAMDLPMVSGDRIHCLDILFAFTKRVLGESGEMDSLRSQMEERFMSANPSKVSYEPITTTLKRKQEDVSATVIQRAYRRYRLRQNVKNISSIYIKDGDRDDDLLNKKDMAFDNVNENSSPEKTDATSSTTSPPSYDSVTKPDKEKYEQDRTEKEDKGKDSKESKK
T2 sequence (Q9UQD0 whole entry): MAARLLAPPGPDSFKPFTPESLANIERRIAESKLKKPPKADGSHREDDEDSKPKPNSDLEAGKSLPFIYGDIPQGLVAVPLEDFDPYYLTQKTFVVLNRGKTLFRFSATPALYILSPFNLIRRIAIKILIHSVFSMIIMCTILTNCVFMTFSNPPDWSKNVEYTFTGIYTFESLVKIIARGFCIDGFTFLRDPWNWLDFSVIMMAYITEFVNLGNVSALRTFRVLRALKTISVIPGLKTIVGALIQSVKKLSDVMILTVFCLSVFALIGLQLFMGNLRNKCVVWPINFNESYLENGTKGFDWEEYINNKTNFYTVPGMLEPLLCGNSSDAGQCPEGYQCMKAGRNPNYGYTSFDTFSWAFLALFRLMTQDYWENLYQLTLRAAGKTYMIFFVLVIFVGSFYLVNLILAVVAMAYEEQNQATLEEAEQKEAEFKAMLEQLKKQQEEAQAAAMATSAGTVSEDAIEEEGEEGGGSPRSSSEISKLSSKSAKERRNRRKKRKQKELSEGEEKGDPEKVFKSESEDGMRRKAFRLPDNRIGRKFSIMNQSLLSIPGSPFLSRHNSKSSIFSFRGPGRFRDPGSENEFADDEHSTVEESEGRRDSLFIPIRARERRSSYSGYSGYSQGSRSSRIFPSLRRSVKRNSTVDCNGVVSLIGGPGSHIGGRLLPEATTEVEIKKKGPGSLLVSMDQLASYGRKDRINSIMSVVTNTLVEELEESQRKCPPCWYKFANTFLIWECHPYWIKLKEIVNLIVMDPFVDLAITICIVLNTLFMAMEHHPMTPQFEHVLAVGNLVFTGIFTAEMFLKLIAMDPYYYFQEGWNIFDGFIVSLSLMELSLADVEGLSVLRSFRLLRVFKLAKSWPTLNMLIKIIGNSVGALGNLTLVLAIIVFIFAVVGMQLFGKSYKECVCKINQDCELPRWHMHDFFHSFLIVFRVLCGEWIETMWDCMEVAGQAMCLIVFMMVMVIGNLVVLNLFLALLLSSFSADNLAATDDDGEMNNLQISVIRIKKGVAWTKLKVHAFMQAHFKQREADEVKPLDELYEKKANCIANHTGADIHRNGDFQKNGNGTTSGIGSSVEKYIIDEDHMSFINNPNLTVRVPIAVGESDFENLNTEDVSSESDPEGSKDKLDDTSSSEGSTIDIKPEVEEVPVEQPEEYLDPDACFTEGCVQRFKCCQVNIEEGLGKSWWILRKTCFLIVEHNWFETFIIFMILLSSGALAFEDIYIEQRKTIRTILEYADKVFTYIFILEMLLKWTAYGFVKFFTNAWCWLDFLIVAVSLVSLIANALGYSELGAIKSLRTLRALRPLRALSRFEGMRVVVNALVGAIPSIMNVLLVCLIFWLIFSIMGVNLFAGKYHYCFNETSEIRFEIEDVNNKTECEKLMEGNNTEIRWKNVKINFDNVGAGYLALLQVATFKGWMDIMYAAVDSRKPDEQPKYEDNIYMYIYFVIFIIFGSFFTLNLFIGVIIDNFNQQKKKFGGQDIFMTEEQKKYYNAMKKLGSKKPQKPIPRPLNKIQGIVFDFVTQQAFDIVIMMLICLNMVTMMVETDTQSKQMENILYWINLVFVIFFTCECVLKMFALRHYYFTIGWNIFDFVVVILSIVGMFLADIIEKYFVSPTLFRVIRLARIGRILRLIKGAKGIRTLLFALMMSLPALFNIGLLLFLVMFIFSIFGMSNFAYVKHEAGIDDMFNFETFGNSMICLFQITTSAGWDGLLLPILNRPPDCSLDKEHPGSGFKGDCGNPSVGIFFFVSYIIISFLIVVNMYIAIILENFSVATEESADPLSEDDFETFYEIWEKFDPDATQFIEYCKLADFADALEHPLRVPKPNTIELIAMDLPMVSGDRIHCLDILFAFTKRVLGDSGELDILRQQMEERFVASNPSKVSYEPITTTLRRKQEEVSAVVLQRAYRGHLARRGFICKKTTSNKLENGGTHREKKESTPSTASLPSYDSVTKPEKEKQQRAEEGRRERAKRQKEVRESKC

As to `CC(C)C[C@@H]1NC(=O)[C@@H](NC(=O)[C@H](C)N)CSSC[C@@H]2NC(=O)[C@@H]3CSSC[C@@H](C(=O)N[C@@H](CCCNC(=N)N)C(=O)N[C@@H](Cc4ccc(O)cc4)C(=O)N[C@@H](CCCCN)C(=O)N[C@@H](CC(C)C)C(=O)N[C@@H](Cc4ccccc4)C(=O)O)NC(=O)[C@H](Cc4c[nH]c5ccccc45)NC(=O)[C@@H]4CCCN4C(=O)[C@H](Cc4ccc(O)cc4)NC(=O)[C@H](CCCCN)NC(=O)[C@H](Cc4c[nH]c5ccccc45)NC(=O)[C@H](CCC(=O)O)NC(=O)[C@H](CSSC[C@H](NC(=O)[C@H](CO)NC(=O)[C@H](CC(=O)O)NC(=O)[C@H](Cc4c[nH]c5ccccc45)NC(=O)[C@H](CCC(N)=O)NC(=O)CNC1=O)C(=O)N[C@@H](CC(=O)O)C(=O)N1CCC[C@H]1C(=O)N[C@@H](CCCCN)C(=O)N[C@@H](C)C(=O)N[C@@H](CO)C(=O)N[C@@H](CCCCN)C(=O)N3)NC(=O)[C@H](C)NC(=O)[C@H](Cc1ccc(O)cc1)NC(=O)[C@H](CC(N)=O)NC(=O)[C@@H]1CCCN1C2=O` [PhlTx1, Phlotoxin-1] (H-ACLGQWDSCDPKASKCCPNYACEWKYPWCRYKLF-OH; disulfide 2-17, 9-22, 16-29; N-terminus and C-terminus assumed), the IC50 against human Nav1.7 was 39 nM; with human Nav1.7 channel it was 250 nM; at hNav1.6, greater than 3000 nM. Also, the “time constant of inhibition” value on human Nav1.7 (33 nM, n = 4) is 253 s; on human Nav1.7 (333 nM, n = 6) it was 97 s; on human Nav1.7 (1 μM, n = 8), 36 s. Also, on human Nav1.7 (100 nM toxin, end of application (about 12-13 min), CHO hNav1.7), the “block of Nav1.7 inward current” value was “above 50%”. The “time constant of inhibition (τ)” value at human Nav1.7 (100 nM, mono-exponential fit (PhlTx1 n = 8)) is given as 159 s. Moreover, the “c value of mono-exponential decay fit (block not complete)” value on human Nav1.7 (1 μM PhlTx1, normalized current) was determined as 0.09. Further, the Hill value on human Nav1.7 (same dose-response fit as IC50, CHO hNav1.7 automated patch-clamp) was 1.53. The highest achievable inhibition at human Nav1.7 (two most efficient concentrations (333 nM and 1 μM)) is recorded as 85%–92%.

By IC50 is commonly meant the concentration at which inhibition is half-maximal.
